Assay results published in patent US11117947B2, “Double-acylated GLP-1 derivatives” (Novo Nordisk A/S, priority 2011, dated 2021).
Read-outs that look alike come from different tables or passages of the source. Numbered stars: 1 amine (or outer) side, 2 acyl side, 3 side chain; on linkers, the order of the positions; unused ones are H or OH. Square brackets hold non-standard residues; d marks the D form. Side chains are listed from the residue outwards. Peptide text beside a SMILES is read from it. * marks the point of attachment. Decanoyl(10-(4-HOOC-PhO)) = O=C(O)c1ccc(OCCCCCCCCCC(=O)*)cc1; γGlu = O=C(O)[C@H](CCC(=O)[*:2])N[*:1]; C14 diacid = O=C(O)CCCCCCCCCCCCC(=O)*; AEEA = NCCOCCOCC(=O)O; Aib = CC(C)(N)C(=O)O

Key:
human GLP-1 receptor = target: T1, human GLP-1 receptor (Homo sapiens, UniProt P43220); assay: GLP-1 receptor binding: displacement of 125I-GLP-1 (SPA) at low and high albumin; conditions: for Ratio [(IC50/nM) high HSA]/[(IC50/nM) low HSA]: 2.0% HSA vs 0.001% HSA
T1 construct: expressed in transfected cells; membranes
Description: The purpose of this experiment is to investigate the binding to the GLP-1 receptor of the GLP-1 derivatives, and how the binding is potentially influenced by the presence of albumin. This is done in an in vitro experiment as described below.
In order to test the binding of the derivatives to albumin, the assay was performed with a low concentration of albumin (0.001%—corresponding to the residual amount thereof in the tracer), as well as with a high concentration of albumin (2.0% added). A shift in the binding affinity, IC50, is an indication that the peptide in question binds to albumin, and thereby a prediction of a potential protracted pharmacokinetic profile of the peptide in question in animal models.
Species (in vitro): Hamster
Biological End Point: Receptor Binding
A stable transfected cell line and a high expressing clone were selected for screening. The cells were grown at 5% CO2 in DMEM, 10% FCS, 1% Pen/Strep (Penicillin/Streptomycin) and 1.0 mg/ml of the selection marker G418.
The cells (approx. 80% confluence) were washed twice in PBS and harvested with Versene (aqueous solution of the tetrasodium salt of ethylenediaminetetraacetic acid), following which they were separated by centrifugation at 1000 rpm for 5 min. The cells/cell pellet must be kept on ice to the extent possible in the subsequent steps. The cell pellet was homogenised with Ultrathurrax for 20-30 seconds in a suitable amount of Buffer 1 (depending on the amount of cells, but e.g. 10 ml). The homogenate was centrifuged at 20000 rpm for 15 minutes. The pellet was resuspended (homogenised) in 10 ml Buffer 2 and re-centrifuged. This step was repeated once more. The resulting pellet was resuspended in Buffer 2, and the protein concentration was determined. The membranes were stored at minus 80° C.
Buffer 1: 20 mM Na-HEPES+10 mM EDTA, pH 7.4
Buffer 2: 20 mM Na-HEPES+0.1 mM EDTA, pH 7.4
Test compounds, membranes, SPA-particles and [^125I]-GLP-1(7-36)NH2 were diluted in assay buffer. 50 ul (micro liter) HSA (“high albumin” experiment containing 2% HSA), or buffer (“low albumin” experiment containing 0.001% HSA), was added to Optiplate, and 25 ul of test compounds were added. 5-10 ug membrane protein/sample was added (50 ul) corresponding to 0.1-0.2 mg protein/ml (to be preferably optimised for each membrane preparation). SPA-particles (Wheatgerm agglutinin SPA beads, Perkin Elmer, #RPNQ0001) were added in an amount of 0.5 mg/well (50 ul). The incubation was started with [^125I]-GLP-1]-(7-36)NH2 (final concentration 0.06 nM corresponding to 49.880 DPM, 25 ul). The plates were sealed with PlateSealer and incubated for 120 minutes at 30° C. while shaking. The plates were centrifuged (1500 rpm, 10 min) and counted in Topcounter.

[1] = Estimate of oral bioavailability: gut injection in rat (caprate), exposure in plasma; type: in vivo; conditions: injection in jejunum, 1000 uM in 55 mg/ml sodium caprate, plasma concentration (pM) at 30 min divided by dosing solution concentration (μM), mean n=4
Outline: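 Male Sprague Dawley rats (~240 g, n=4) received 100 μl of 1000 uM derivative in 55 mg/ml sodium caprate by catheter into proximal or mid jejunum. Tail-vein EDTA plasma was sampled up to 240 min. Peptide was quantified by two-antibody bead chemiluminescence immunoassay, giving mean concentration-time profiles (pmol/l).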

T1 sequence (P43220 24-463): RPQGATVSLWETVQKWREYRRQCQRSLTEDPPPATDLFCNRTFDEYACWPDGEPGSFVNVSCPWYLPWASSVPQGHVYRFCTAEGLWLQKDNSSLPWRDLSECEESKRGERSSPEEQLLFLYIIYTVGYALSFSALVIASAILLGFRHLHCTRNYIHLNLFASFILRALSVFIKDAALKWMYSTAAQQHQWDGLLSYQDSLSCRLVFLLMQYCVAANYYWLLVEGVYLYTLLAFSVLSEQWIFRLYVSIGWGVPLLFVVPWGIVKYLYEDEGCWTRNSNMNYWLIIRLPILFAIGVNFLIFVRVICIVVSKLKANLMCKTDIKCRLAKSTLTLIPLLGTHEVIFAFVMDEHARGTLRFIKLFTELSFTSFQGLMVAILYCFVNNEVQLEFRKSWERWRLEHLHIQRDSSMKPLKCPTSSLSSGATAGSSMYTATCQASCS

| IC50 (human GLP-1 receptor; low albumin, 0.001% HSA, read-out: IC50/nM (low HSA)) [nM] | Compound | Ratio [(IC50/nM) high HSA]/[(IC50/nM) low HSA] (human GLP-1 receptor) | Dose-corrected exposure at 30 min [1] | IC50 (human GLP-1 receptor; high albumin, 2.0% HSA, read-out: IC50/nM (high HSA)) [nM] |
| --- | --- | --- | --- | --- |
|  | CC[C@H](C)[C@H](NC(=O)[C@H](Cc1ccccc1)NC(=O)[C@H](CCCCNC(=O)COCCOCCNC(=O)COCCOCCNC(=O)CC[C@H](NC(=O)CCCCCCCCCOc1ccc(C(=O)O)cc1)C(=O)O)NC(=O)[C@H](CCCNC(=N)N)NC(=O)[C@H](C)NC(=O)[C@H](C)NC(=O)[C@H](CCC(N)=O)NC(=O)[C@H](CCC(=O)O)NC(=O)[C@H](CCC(=O)O)NC(=O)[C@H](CCCCNC(=O)COCCOCCNC(=O)COCCOCCNC(=O)CC[C@H](NC(=O)CCCCCCCCCOc1ccc(C(=O)O)cc1)C(=O)O)NC(=O)[C@H](Cc1ccc(O)cc1)NC(=O)[C@H](CO)NC(=O)[C@H](CO)NC(=O)[C@@H](NC(=O)[C@H](CC(=O)O)NC(=O)[C@H](CO)NC(=O)[C@@H](NC(=O)[C@H](Cc1ccccc1)NC(=O)[C@@H](NC(=O)CNC(=O)[C@H](CCC(=O)O)NC(=O)C(C)(C)NC(=O)[C@@H](N)Cc1c[nH]cn1)[C@@H](C)O)[C@@H](C)O)C(C)C)C(=O)N[C@@H](CCC(=O)O)C(=O)N[C@@H](Cc1c[nH]c2ccccc12)C(=O)N[C@@H](CC(C)C)C(=O)N[C@H](C(=O)NCC(=O)O)C(C)C [Example 5, N^ε20-[2-[2-[2-[[2-[2-[2-[[(4S)-4-carboxy-4-[10-(4-carboxyphenoxy)decanoylamino]butanoyl]amino]ethoxy]ethoxy]acetyl]amino]ethoxy]ethoxy]acetyl], N^ε27-[2-[2-[2-[[2-[2-[2-[[(4S)-4-carboxy-4-[10-(4-carboxyphenoxy)decanoylamino]butanoyl]amino]ethoxy]ethoxy]acetyl]amino]ethoxy]ethoxy]acetyl]-[Aib^8,Lys^20,Glu^22,Arg^26,Lys^27,Glu^30,Gly^34]-GLP-1-(7-34)-peptide] (H-H[Aib]EGTFTSDVSSYK([AEEA-AEEA-γGlu-Decanoyl(10-(4-HOOC-PhO))])EEQAARK([AEEA-AEEA-γGlu-Decanoyl(10-(4-HOOC-PhO))])FIEWLVG-OH) | 79 | 124 |  |
|  | CC[C@H](C)[C@H](NC(=O)[C@H](Cc1ccccc1)NC(=O)[C@H](CCCCNC(=O)COCCOCCNC(=O)COCCOCCNC(=O)CC[C@H](NC(=O)CCCCCCCCCOc1ccc(C(=O)O)cc1)C(=O)O)NC(=O)[C@H](CCCNC(=N)N)NC(=O)[C@H](C)NC(=O)[C@H](C)NC(=O)[C@H](CCC(N)=O)NC(=O)[C@H](CCC(=O)O)NC(=O)[C@H](CCC(=O)O)NC(=O)[C@H](CC(C)C)NC(=O)[C@H](Cc1ccc(O)cc1)NC(=O)[C@H](CO)NC(=O)[C@H](CO)NC(=O)[C@@H](NC(=O)[C@H](CC(=O)O)NC(=O)[C@H](CO)NC(=O)[C@@H](NC(=O)[C@H](Cc1ccccc1)NC(=O)[C@@H](NC(=O)CNC(=O)[C@H](CCC(=O)O)NC(=O)[C@H](C)NC(=O)[C@@H](N)Cc1c[nH]cn1)[C@@H](C)O)[C@@H](C)O)C(C)C)C(=O)N[C@@H](C)C(=O)N[C@@H](Cc1c[nH]c2ccccc12)C(=O)N[C@@H](CC(C)C)C(=O)N[C@H](C(=O)N[C@@H](CCCNC(=N)N)C(=O)NCC(=O)N[C@@H](CCCCNC(=O)COCCOCCNC(=O)COCCOCCNC(=O)CC[C@H](NC(=O)CCCCCCCCCOc1ccc(C(=O)O)cc1)C(=O)O)C(=O)O)C(C)C [Example 3, N^ε27-[2-[2-[2-[[2-[2-[2-[[(4S)-4-carboxy-4-[10-(4-carboxyphenoxy)decanoylamino]butanoyl]amino]ethoxy]ethoxy]acetyl]amino]ethoxy]ethoxy]acetyl], N^ε36-[2-[2-[2-[[2-[2-[2-[[(4S)-4-carboxy-4-[10-(4-carboxyphenoxy)decanoylamino]butanoyl]amino]ethoxy]ethoxy]acetyl]amino]ethoxy]ethoxy]acetyl]-[Glu^22,Arg^26,Lys^27,Arg^34,Lys^36],des-Gly37-GLP-1-(7-36)-peptide] (H-HAEGTFTSDVSSYLEEQAARK([AEEA-AEEA-γGlu-Decanoyl(10-(4-HOOC-PhO))])FIAWLVRGK([AEEA-AEEA-γGlu-Decanoyl(10-(4-HOOC-PhO))])-OH; N-terminus and C-terminus assumed) |  | 67 | 29 |
| 0.19 | CC[C@H](C)[C@H](NC(=O)[C@H](Cc1ccccc1)NC(=O)[C@H](CCCCNC(=O)CC[C@H](NC(=O)COCCOCCNC(=O)COCCOCCNC(=O)CCCCCCCCCCCCC(=O)O)C(=O)O)NC(=O)[C@H](CCCNC(=N)N)NC(=O)[C@@H](NC(=O)[C@H](C)NC(=O)[C@H](CCC(N)=O)NC(=O)[C@H](CCCCNC(=O)CC[C@H](NC(=O)COCCOCCNC(=O)COCCOCCNC(=O)CCCCCCCCCCCCC(=O)O)C(=O)O)NC(=O)[C@H](CCC(=O)O)NC(=O)[C@H](CC(C)C)NC(=O)[C@H](Cc1ccc(O)cc1)NC(=O)[C@H](CO)NC(=O)[C@H](CO)NC(=O)[C@@H](NC(=O)[C@H](CC(=O)O)NC(=O)[C@H](CO)NC(=O)[C@@H](NC(=O)[C@H](Cc1ccccc1)NC(=O)[C@@H](NC(=O)CNC(=O)[C@H](CCC(=O)O)NC(=O)[C@H](C)NC(=O)[C@@H](N)Cc1c[nH]cn1)[C@@H](C)O)[C@@H](C)O)C(C)C)C(C)C)C(=O)N[C@@H](CCC(=O)O)C(=O)N[C@@H](Cc1c[nH]c2ccccc12)C(=O)N[C@@H](CC(C)C)C(=O)N[C@H](C(=O)N[C@@H](CCC(N)=O)C(=O)NCC(=O)N[C@@H](CCCNC(=N)N)C(=O)NCC(=O)O)C(C)C [Example 20, N^ε22-[(4S)-4-carboxy-4-[[2-[2-[2-[[2-[2-[2-(13-carboxytridecanoylamino)ethoxy]ethoxy]acetyl]amino]ethoxy]ethoxy]acetyl]amino]butanoyl], N^ε27-[(4S)-4-carboxy-4-[[2-[2-[2-[[2-[2-[2-(13-carboxytridecanoylamino)ethoxy]ethoxy]acetyl]amino]ethoxy]ethoxy]acetyl]amino]butanoyl]-_[Lys^22,Val^25TArg^26,Lys^27,Glu^30,Gln^34]-GLP-1-(7-37)-peptide] (H-HAEGTFTSDVSSYLEK([γGlu-AEEA-AEEA-C14 diacid])QAVRK([γGlu-AEEA-AEEA-C14 diacid])FIEWLVQGRG-OH; N-terminus and C-terminus assumed) |  | 123 |  |
|  | CC[C@H](C)[C@H](NC(=O)[C@H](Cc1ccccc1)NC(=O)[C@H](CCCCNC(=O)COCCOCCNC(=O)COCCOCCNC(=O)CC[C@H](NC(=O)CCCCCCCCCCCCC(=O)O)C(=O)O)NC(=O)[C@H](CCCNC(=N)N)NC(=O)[C@@H](NC(=O)[C@H](C)NC(=O)[C@H](CCC(N)=O)NC(=O)[C@H](CCCCNC(=O)COCCOCCNC(=O)COCCOCCNC(=O)CC[C@H](NC(=O)CCCCCCCCCCCCC(=O)O)C(=O)O)NC(=O)[C@H](CCC(=O)O)NC(=O)[C@H](CC(C)C)NC(=O)[C@H](Cc1ccc(O)cc1)NC(=O)[C@H](CO)NC(=O)[C@H](CO)NC(=O)[C@@H](NC(=O)[C@H](CC(=O)O)NC(=O)[C@H](CO)NC(=O)[C@@H](NC(=O)[C@H](Cc1ccccc1)NC(=O)[C@@H](NC(=O)CNC(=O)[C@H](CCC(=O)O)NC(=O)C(C)(C)NC(=O)[C@@H](N)Cc1c[nH]cn1)[C@@H](C)O)[C@@H](C)O)C(C)C)C(C)C)C(=O)N[C@@H](C)C(=O)N[C@@H](Cc1c[nH]c2ccccc12)C(=O)N[C@@H](CC(C)C)C(=O)N[C@H](C(=O)N[C@@H](CCCNC(=N)N)C(=O)O)C(C)C [Example 8, N^ε22-[2-[2-[2-[[2-[2-[2-[[(4S)-4-carboxy-4-(13-carboxytridecanoylamino)butanoyl]amino]ethoxy]ethoxy]acetyl]amino]ethoxy]ethoxy]acetyl], N^ε27-[2-[2-[2-[[2-[2-[2-[[(4S)-4-carboxy-4-(13-carboxytridecanoylamino)butanoyl]amino]ethoxy]ethoxy]acetyl]amino]ethoxy]ethoxy]acetyl]-[Aib^8,Lys^22,Val^25,Arg^26,Lys^27,Arg^34]-GLP-1-(7-34)-peptide] (H-H[Aib]EGTFTSDVSSYLEK([AEEA-AEEA-γGlu-C14 diacid])QAVRK([AEEA-AEEA-γGlu-C14 diacid])FIAWLVR-OH) | 57 | 86 |  |
